Entries after “also recorded” stand apart in the source; their conditions may differ. Values belong to the molecule of their own block, whether it stands above or below them.
Legend:
[1] = mouse; cited from earlier work
ovine COX-1 [2] = molecular target: T1, ovine COX-1 (Ovis aries, UniProt P05979); settings: read-out: concentration reducing the rate of cyclooxygenation to about half; COX-1, AA as substrate; cited from earlier work
T1 sequence (P05979 25-600): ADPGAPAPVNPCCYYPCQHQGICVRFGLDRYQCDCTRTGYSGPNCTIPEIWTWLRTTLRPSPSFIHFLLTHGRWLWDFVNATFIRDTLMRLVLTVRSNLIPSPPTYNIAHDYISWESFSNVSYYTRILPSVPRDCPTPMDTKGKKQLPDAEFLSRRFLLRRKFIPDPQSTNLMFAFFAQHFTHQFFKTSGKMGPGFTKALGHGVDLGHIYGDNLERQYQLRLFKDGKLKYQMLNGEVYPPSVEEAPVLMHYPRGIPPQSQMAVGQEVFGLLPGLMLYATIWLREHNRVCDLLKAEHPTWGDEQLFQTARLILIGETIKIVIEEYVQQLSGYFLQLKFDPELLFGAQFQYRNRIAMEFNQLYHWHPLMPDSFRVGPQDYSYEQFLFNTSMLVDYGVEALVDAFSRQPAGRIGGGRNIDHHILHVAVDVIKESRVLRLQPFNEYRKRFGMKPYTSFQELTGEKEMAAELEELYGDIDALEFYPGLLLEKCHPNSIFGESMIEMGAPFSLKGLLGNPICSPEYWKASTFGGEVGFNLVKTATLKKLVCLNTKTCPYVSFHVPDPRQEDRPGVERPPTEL

human recombinant COX-2 [3] = molecular target: T2, human recombinant COX-2 (Homo sapiens, UniProt P35354); settings: cited from earlier work
T2 sequence (P35354 18-604): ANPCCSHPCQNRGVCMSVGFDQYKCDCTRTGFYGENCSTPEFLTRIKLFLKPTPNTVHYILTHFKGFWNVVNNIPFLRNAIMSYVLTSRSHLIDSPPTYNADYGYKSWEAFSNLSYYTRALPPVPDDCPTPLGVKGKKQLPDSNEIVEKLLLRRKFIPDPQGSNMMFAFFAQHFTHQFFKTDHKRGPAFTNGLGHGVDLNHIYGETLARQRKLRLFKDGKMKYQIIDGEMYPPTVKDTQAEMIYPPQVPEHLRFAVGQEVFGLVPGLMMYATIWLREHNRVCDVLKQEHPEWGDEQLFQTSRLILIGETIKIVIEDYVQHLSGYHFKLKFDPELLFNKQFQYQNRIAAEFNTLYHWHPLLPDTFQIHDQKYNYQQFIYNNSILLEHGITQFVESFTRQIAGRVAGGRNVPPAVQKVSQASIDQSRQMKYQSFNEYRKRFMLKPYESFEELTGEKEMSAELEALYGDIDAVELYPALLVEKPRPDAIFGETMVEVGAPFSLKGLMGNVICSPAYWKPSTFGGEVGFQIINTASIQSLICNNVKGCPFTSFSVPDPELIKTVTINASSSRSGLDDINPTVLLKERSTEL

[4] = in vivo; cited from earlier work
FAAH = test system: FAAH; set-up: method as in PMID 25757568; settings: cited from earlier work
COX-1 = test system: COX-1; set-up: method as in PMID 25757568; settings: cited from earlier work
COX-2 = test system: COX-2; set-up: method as in PMID 25757568; settings: cited from earlier work
[5] = set-up: method as in PMID 25757568; settings: cited from earlier work
rat brain FAAH [6] = molecular target: T3, rat brain FAAH (Rattus norvegicus, UniProt P97612); assay: FAAH assay: hydrolysis of [3H]AEA by rat brain homogenates; assay type: biochemical; settings: for IC50: 0.5 µM [3H]AEA, rat brain homogenates, read-out: IC50 for inhibition of the hydrolysis of [3H]AEA
T3 construct: hydrolysis of 0.5 µM [^3H]AEA by rat brain homogenates; from tissue; host or cells: rat brain (minus cerebella), washed membrane homogenate
T3 sequence (P97612 1-579): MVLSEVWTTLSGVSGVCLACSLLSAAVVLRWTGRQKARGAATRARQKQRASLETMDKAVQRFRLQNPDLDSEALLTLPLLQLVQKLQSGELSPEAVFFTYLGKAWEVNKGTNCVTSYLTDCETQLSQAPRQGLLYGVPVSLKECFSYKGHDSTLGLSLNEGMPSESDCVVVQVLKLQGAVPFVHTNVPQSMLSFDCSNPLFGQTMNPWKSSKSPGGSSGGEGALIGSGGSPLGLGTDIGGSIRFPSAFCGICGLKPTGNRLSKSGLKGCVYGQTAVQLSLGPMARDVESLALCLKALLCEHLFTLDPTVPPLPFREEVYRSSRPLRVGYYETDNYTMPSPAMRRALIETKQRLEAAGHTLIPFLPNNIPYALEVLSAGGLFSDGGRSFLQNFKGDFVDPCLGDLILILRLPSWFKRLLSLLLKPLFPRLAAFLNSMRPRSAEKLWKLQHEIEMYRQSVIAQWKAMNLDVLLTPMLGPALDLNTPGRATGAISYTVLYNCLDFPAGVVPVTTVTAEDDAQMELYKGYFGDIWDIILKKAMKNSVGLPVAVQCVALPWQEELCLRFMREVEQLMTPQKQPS
Procedure: Frozen (−80 °C) brains (minus cerebella) from adult Wistar or Sprague-Dawley rats were thawed and homogenised in 20 mM HEPES, 1 mM MgCl2, pH 7.0. The homogenates were then centrifuged at ∼35000 x g for 20 min at 4 °C followed by washing (by recentrifugation and by resuspension in the buffer) twice before incubation at 37 °C for 15 min in order to hydrolyse all endogenous FAAH substrates. After a further centrifugation, pellets were resuspended in 50 mM Tris-HCl buffer, pH 7.4, containing 1 mM EDTA and 3 mM MgCl2, and frozen at −80 °C in aliquots until used for the assay. For the FAAH assay, test compounds, homogenates and [^3H]AEA (diluted with non-radioactive AEA to give a substrate concentration of 0.5 μM) in 10 mM Tris- HCl, 1 mM EDTA, pH 7.4, containing 1% w/v fatty acid-free bovine serum albumin were incubated for 10 min at 37 °C. Activated charcoal in 0.5 M HCl was added to adsorb the unmetabolized [^3H]AEA and the samples were mixed and left at r.t. for ∼30 min. Following centrifugation at 2000 g for 10 min, aliquots of the supernatants, containing the [^3H]ethanolamine produced by hydrolysis of [^3H]AEA, were analysed for tritium content by liquid scintillation spectroscopy with quench correction. Blank values were obtained by the use of buffer rather than homogenate.
Data were expressed as % of vehicle (ethanol) control and analysed using the algorithm log(inhibitor) vs. response – variable slope (four parameters) built into the GraphPad Prism computer programme v8.3 for the Macintosh (GraphPad Software Inc., San Diego, CA). The programme reports 95% confidence limits (profile likelihood) for the IC50 values and these presented in the results.

rat brain FAAH [7] = molecular target: T3, rat brain FAAH; assay: FAAH assay: hydrolysis of [3H]AEA by rat brain homogenates; assay type: biochemical; settings: kinetics of inhibition of rat FAAH, mixed-type model
ovine COX-1 [8] = molecular target: T1, ovine COX-1; assay: COX-1 assay, oxygen electrode (cyclooxygenation of substrate); assay type: biochemical; set-up: purchased Cayman Chemical Co. 60100; settings: 10 µM AA
Procedure: (§1) The assay was performed essentially according to the method of Meade et al[21]. An oxygen electrode chamber with integral stirring (Oxygraph System, Hansatech Instruments, King ´s Lynn, U.K.) was calibrated daily to ambient temperature and air pressure. The assay buffer contained 0.1 M Tris-HCl buffer pH 7.4, 1 μM haematin, 2 mM phenol, 5 mM EDTA, 10 μM substrate (AA or 2-AG) in a final assay volume was 2 ml. After addition of test compound, a baseline was established for 5 min before initiation of reaction by addition of 200 units ovine COX-1 or human recombinant COX-2. The change in oxygen consumption as a measurement of enzyme activity was monitored for approximately 5 min.

human recombinant COX-2 [9] = molecular target: T2, human recombinant COX-2; assay: COX-2 assay, oxygen electrode (cyclooxygenation of AA, 2-AG or AEA); assay type: biochemical; set-up: purchased Cayman Chemical Co. 60122; settings: for inhibition of AA cyclooxygenation by COX-2: 10 µM AA
Procedure: as §1

rat brain FAAH [10] = molecular target: T3, rat brain FAAH; settings: removal of the methyl group at the C-2 carbon atom; cited from earlier work
COX = test system: COX; set-up: method as in PMID 28535469; settings: cited from earlier work

Molecule: 2–(4-isobutylphenyl)-N-(3-methylpyridin-2-yl)propenamide [Ibu-AM5]
analgesic activity, acetic acid-induced visceral nociception [1]: analgesic activity
IC50 (ovine COX-1 [2]): ~50000 nM
effect upon COX-2 with AA as substrate (human recombinant COX-2 [3]; 100 µM Ibu-AM5): without effect
IC50 (human recombinant COX-2 [3]; read-out: concentration reducing the rate of cyclooxygenation to about half, COX-2, AEA as substrate): ~3000 nM
ulcerogenic potency [4]: without appreciable ulcerogenic potency

Molecule: CCCCCCNC(=O)Oc1cccc(-c2ccc(C(C)C(=O)O)cc2F)c1 (racemic) [ARN2508, (±)−2-[3-fluoro-4-[3-(hexylcarbamoyloxy)phenyl]phenyl]propanoic acid]
IC50 (FAAH): 31 nM
IC50 (COX-1): 12 nM
IC50 (COX-2): 420 nM
anti-inflammatory effects in vivo [5]: produced anti-inflammatory effects in vivo
gastric irritation ([5]; in vivo): without causing gastric irritation

Molecule: Cc1ccccc1NC(=O)C(C)c1ccc(CC(C)C)cc1 (stereo not drawn) [Ibu-AM38, 2–(4-Isobutylphenyl)-N-(o-tolyl)propanamide]
IC50 (rat brain FAAH [6]): 2000 nM

Molecule: CC(C)Cc1ccc(C(C)C(=O)Nc2ccccc2O)cc1 (stereo not drawn) [Ibu-AM59, N-(2-Hydroxyphenyl)-2-(4-isobutylphenyl)propanamide]
IC50 (rat brain FAAH [6]): 8500 nM

Molecule: CC(C)Cc1ccc(C(C)C(=O)Nc2ccc(O)cc2)cc1 (stereo not drawn) [Ibu-AM65, N-(4-Hydroxyphenyl)-2-(4-isobutylphenyl)propanamide]
IC50 (rat brain FAAH [6]): 3800 nM

Molecule: COc1ccc(NC(=O)C(C)c2ccc(CC(C)C)cc2)c(C)c1 (stereo not drawn) [Ibu-AM67, 2-(4-Isobutylphenyl)-N-(4-methoxy-2-methylphenyl)propanamide]
IC50 (rat brain FAAH [6]): 7900 nM
melting point: 100 to 102 °C

Molecule: CC(C)Cc1ccc(C(C)C(=O)Nc2ncccc2O)cc1 (stereo not drawn) [Ibu-AM70, N-(3-Hydroxypyridin-2-yl)-2-(4-isobutylphenyl)propenamide]
IC50 (rat brain FAAH [6]): 2700 nM

Molecule: Cc1cccnc1NC(=O)C(C)(C)c1ccc(CC(C)C)cc1 [Ibu-AM72, 2-(4-Isobutylphenyl)-2-methyl-N-(3-methylpyridin-2-yl)propanamide]
IC50 (rat brain FAAH [6]): 1000 nM

Molecule: Cc1cccnc1NC(=O)C1(c2ccc(CC(C)C)cc2)CC1 [Ibu-AM73]
IC50 (rat brain FAAH [6]): 4100 nM

Molecule: Cc1cccnc1NC(=O)Cc1ccc(CC(C)C)cc1 [Ibufenac-AM1]
reduction of FAAH inhibitory potency relative to Ibu-AM5 (rat brain FAAH [10]): roughly 60 fold

Molecule: N-(3-chloropyridin-2-yl)−2–(4-((2-(trifluoromethyl)pyridin-4-yl)amino)phenyl)propenamide [TPA-14]
COX-inhibitory potency (COX): lacked COX-inhibitory potency

More lines, main results first:

IC50 (rat brain FAAH [6]): 910 nM
Molecule: CC(C)Cc1ccc(C(C)C(=O)Nc2ncccc2Cl)cc1 (stereo not drawn) [Ibu-AM58, N-(3-Chloropyridin-2-yl)-2-(4-isobutylphenyl)propanamide]

IC50 (rat brain FAAH [6]): 360 nM
melting point: 112 to 114 °C
Molecule: CC(C)Cc1ccc(C(C)C(=O)Nc2ncccc2C(F)(F)F)cc1 (stereo not drawn) [Ibu-AM60, 2-(4-Isobutylphenyl)-N-(3-(trifluoromethyl)pyridin-2-yl)propanamide]

IC50 (rat brain FAAH [6]): 350 nM
melting point: 133 to 135 °C
Molecule: Cc1cc(O)ccc1NC(=O)C(C)c1ccc(CC(C)C)cc1 (stereo not drawn) [Ibu-AM66, N-(4-Hydroxy-2-methylphenyl)-2-(4-isobutylphenyl)propanamide]

IC50 (rat brain FAAH [6]): 83 nM
time-dependence of the inhibition (rat brain FAAH [6]; preincubation with homogenates for up to 60 min prior to addition of substrate): no time-dependence of the inhibition
Ki (rat brain FAAH [7]): 260 nM
α value (ratio of the Ki intercept: Ki slope values) (rat brain FAAH [7]): 4.9
inhibition of AA cyclooxygenation by COX-1 (ovine COX-1 [8]; 10 µM compound): modest inhibition
inhibition of AA cyclooxygenation by COX-1 (ovine COX-1 [8]; 50 and 100 µM compound): complete inhibition
inhibition of AA cyclooxygenation by COX-2 (human recombinant COX-2 [9]; 10 µM compound): did not inhibit
inhibition of AA cyclooxygenation by COX-2 (human recombinant COX-2 [9]; 50 and 100 µM compound): did not inhibit
Molecule: CC(C)Cc1ccc(C(C)C(=O)Nc2ncccc2Br)cc1 (stereo not drawn) [Ibu-AM68, N-(3-Bromopyridin-2-yl)−2-(4-isobutylphenyl)propanamide]
mode of inhibition of FAAH (rat brain FAAH [6]; 60 min preincubation, 20-fold dilution, kinetic experiments): reversible, mixed-type mechanism of inhibition; also recorded: reversible mixed inhibitor
inhibition of 2-AG cyclooxygenation by COX-2 (human recombinant COX-2 [9]; 10 µM compound, 10 µM 2-AG): greatly reduced; also recorded: almost completely inhibited

IC50 (rat brain FAAH [6]): 120 nM
Molecule: CC(C)Cc1ccc(C(C)C(=O)Nc2ncccc2I)cc1 (stereo not drawn) [Ibu-AM69, N-(3-Iodopyridin-2-yl)-2-(4-isobutylphenyl)propanamide]

Source: paper PMC7144264 (Journal of Enzyme Inhibition and Medicinal Chemistry, 2020)
